Experimental data published in the supplement of paper PMC10733146.

Experiments:
Test in all cases: viability relative to DMSO control (fraction); higher = less drug effect (more viable cells)
Settings in all cases: 48 h
[1] = system: primary AML patient cells (S021)
Procedure, shortened: (§1)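 Cells were incubated for 48 h at 37 °C and 5% CO2 in RPMI-1640 with penicillin/streptomycin, L-glutamine and human serum, at 4 × 10^4 cells per well in 384-well plates with compounds pre-plated at five concentrations, one well each. These were primary mononuclear tumour cells, fresh or cryopreserved, Ficoll-isolated from blood or bone marrow or obtained from processed lymph node. Viability values are CellTiter-Glo luminescence relative to the median of 16 inner DMSO wells.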

[2] = system: primary B-PLL patient cells (S016)
Procedure, shortened: as §1

[3] = system: primary AML patient cells (S071)
Procedure, shortened: as §1

[4] = system: primary AML patient cells (S060)
Procedure, shortened: as §1

[5] = system: primary DLBCL patient cells (S049)
Procedure, shortened: as §1

[6] = system: primary ALL patient cells (S088)
Procedure, shortened: as §1

[7] = system: primary AML patient cells (S085)
Procedure, shortened: as §1

[8] = system: primary AML patient cells (S019)
Procedure, shortened: as §1

[9] = system: primary DLBCL patient cells (S076)
Procedure, shortened: as §1

[10] = system: primary T-NHL patient cells (S058)
Procedure, shortened: as §1

[11] = system: primary AML patient cells (S017)
Procedure, shortened: as §1

[12] = system: primary AML patient cells (S002)
Procedure, shortened: as §1

[13] = system: primary AML patient cells (S011)
Procedure, shortened: as §1

[14] = system: primary CLL patient cells (S043)
Procedure, shortened: as §1

[15] = system: primary AML patient cells (S081)
Procedure, shortened: as §1

[16] = system: primary AML patient cells (S025)
Procedure, shortened: as §1

[17] = system: primary BL patient cells (S005)
Procedure, shortened: as §1

## COc1ccc(C2=N[C@@H](c3ccc(Cl)cc3)[C@@H](c3ccc(Cl)cc3)N2C(=O)N2CCNC(=O)C2)c(OC(C)C)c1 [Nutlin-3a]
[1]; 0.032 µM
  viability: 0.972
[1]; 0.16 µM
  viability: 0.978
[1]; 0.8 µM
  viability: 0.73
[1]; 4 µM
  viability: 0.328
[1]; 20 µM
  viability: 0.2
[2]; 0.032 µM
  viability: 1.06
[2]; 0.16 µM
  viability: 0.946
[2]; 0.8 µM
  viability: 1.02
[2]; 4 µM
  viability: 0.733
[2]; 20 µM
  viability: 0.101
[3]; 0.032 µM
  viability: 0.982
[3]; 0.16 µM
  viability: 0.78
[3]; 0.8 µM
  viability: 0.342
[3]; 4 µM
  viability: 0.117
[3]; 20 µM
  viability: 0.0641
[4]; 0.032 µM
  viability: 1.02
[4]; 0.16 µM
  viability: 0.99
[4]; 0.8 µM
  viability: 1.03
[4]; 4 µM
  viability: 1.01
[4]; 20 µM
  viability: 0.974
[5]; 0.032 µM
  viability: 1.1
[5]; 0.16 µM
  viability: 0.987
[5]; 0.8 µM
  viability: 1.01
[5]; 4 µM
  viability: 1.04
[5]; 20 µM
  viability: 0.835
[6]; 0.032 µM
  viability: 0.954
[6]; 0.16 µM
  viability: 0.854
[6]; 0.8 µM
  viability: 0.795
[6]; 4 µM
  viability: 0.355
[6]; 20 µM
  viability: 0.133
[7]; 0.032 µM
  viability: 1.06
[7]; 0.16 µM
  viability: 1.31
[7]; 0.8 µM
  viability: 0.877
[7]; 4 µM
  viability: 0.509
[7]; 20 µM
  viability: 0.503
[8]; 0.032 µM
  viability: 1.13
[8]; 0.16 µM
  viability: 1.03
[8]; 0.8 µM
  viability: 1.08
[8]; 4 µM
  viability: 0.546
[8]; 20 µM
  viability: 0.259
[9]; 0.032 µM
  viability: 0.907
[9]; 0.16 µM
  viability: 0.909
[9]; 0.8 µM
  viability: 0.934
[9]; 4 µM
  viability: 0.737
[9]; 20 µM
  viability: 0.357
[10]; 0.032 µM
  viability: 0.946
[10]; 0.16 µM
  viability: 0.939
[10]; 0.8 µM
  viability: 0.941
[10]; 4 µM
  viability: 0.634
[10]; 20 µM
  viability: 0.18
[11]; 0.032 µM
  viability: 1.05
[11]; 0.16 µM
  viability: 0.979
[11]; 0.8 µM
  viability: 1.03
[11]; 4 µM
  viability: 1.03
[11]; 20 µM
  viability: 1.08
[12]; 0.032 µM
  viability: 0.891
[12]; 0.16 µM
  viability: 0.91
[12]; 0.8 µM
  viability: 0.726
[12]; 4 µM
  viability: 0.401
[12]; 20 µM
  viability: 0.268
[13]; 0.032 µM
  viability: 0.973
[13]; 0.16 µM
  viability: 1.04
[13]; 0.8 µM
  viability: 0.8
[13]; 4 µM
  viability: 0.363
[13]; 20 µM
  viability: 0.155
[14]; 0.032 µM
  viability: 1.05
[14]; 0.16 µM
  viability: 1.01
[14]; 0.8 µM
  viability: 1.04
[14]; 4 µM
  viability: 0.894
[14]; 20 µM
  viability: 0.322
[15]; 0.032 µM
  viability: 0.997
[15]; 0.16 µM
  viability: 0.979
[15]; 0.8 µM
  viability: 1.03
[15]; 4 µM
  viability: 1.02
[15]; 20 µM
  viability: 0.783
[16]; 0.032 µM
  viability: 0.961
[16]; 0.16 µM
  viability: 0.947
[16]; 0.8 µM
  viability: 0.788
[16]; 4 µM
  viability: 0.346
[16]; 20 µM
  viability: 0.0996
[17]; 0.032 µM
  viability: 0.962
[17]; 0.16 µM
  viability: 0.887
[17]; 0.8 µM
  viability: 1.01
[17]; 4 µM
  viability: 0.91
[17]; 20 µM
  viability: 0.827
